In patent US7547676B2, “Antagonist peptides to the C5A chemotactic function of vitamin D binding protein” (The Research Foundation of State University of New York, priority 2004, dated 2009):

Assays:
neutrophils [1] = assay: Neutrophil chemotaxis assay, C5a co-chemotactic activity of DBP; assay type: cell-based, human
Description: Isolation of human neutrophils Neutrophils, serum, and plasma were isolated from the venous blood of healthy, medication-free, paid volunteers who gave informed consent. The Institutional Review Board of Stony Brook University approved this procedure. These procedures have been described in detail previously (Kew et al., 1995a).
Neutrophil chemotaxis assay Cell movement was quantitated using a 48 well microchemotaxis chamber (Neuroprobe, Cabin John, Md.) and 5.0 μm pore size cellulose nitrate filters (purchased from Neuroprobe) as previously described (Kew et al., 1995a). Cell suspensions and chemotactic factors were prepared and/or diluted in the chemotaxis assay buffer (Hank's balanced salt solution supplemented with 10 mM HEPES (pH 7.4) and 1% bovine serum albumin). Cell movement was quantitated microscopically by measuring the distance in microns (μm) that the leading front of cells had migrated into the filter according to the method described by Zigmond and Hirsch (1973). In each experiment, five fields per duplicate filter were measured at 400× magnification.

neutrophils [2] = assay: Quantitative binding of radioiodinated DBP to neutrophils; design: species or system human; details: DBP saturated with the ligand; 100 nM 125I-DBP, 37° C. 60 min
Protocol: Quantitative binding of radioiodinated DBP to neutrophils Purified DBP (200-400 μg) was iodinated using Na-^125I (Dupont-NEN, Wilmington, Del.) as previously described (DiMartino and Kew, 1999). Neutrophils (10^7 cells/sample) were incubated with 100 nM ^125I-DBP in Hank's balanced salt solution (HBSS) containing 0.1% bovine serum albumin (BSA) (assay buffer) in a total volume of 100 μl. Samples were incubated at 37° C. for 60 min after which cells were placed on ice and then washed twice with ice-cold assay buffer (1.0 ml each) and centrifuged for 7 min at 200× g at 2° C. The cell pellets were then counted for total radioactivity in a gamma counter. All samples were assayed in triplicate or quadruplicate.

[3] = test system: Alkaline phosphatase activity on the plasma membrane of viable neutrophils; assay: Neutrophil alkaline phosphatase assay (DiFMUP); assay type: cell-based, human; details: 5×10^6 cells pretreated with 10 nM 1,25(OH)2D3 or 10 μM SOV; untreated 11,107±1335 units
Protocol: Neutrophil alkaline phosphatase assay Alkaline phosphatase activity on the plasma membrane of viable neutrophils was measured using the fluorescent substrate 6,8-difluoro-4-methylumbelliferyl phosphate (DiFMUP) and the EnzChek Phosphatase Assay Kit (Molecular Probes, Eugene, Oreg.). Neutrophils (5×10^6 cells) were suspended in 50 μl of 0.1M sodium acetate (pH 5.0) and were immediately added to microtiter plates containing 50 μl of 0.2mM DiFMUP substrate and incubated for 5 min at 22° C. in the dark. A standard curve was generated using known amounts of the fluorescent compound 6,8-difluoro-7-hydroxy-4-methylcoumarin. Fluorescence was measured at 358 nm excitation and 455 nm emission using a SpectraMax M2 microtiter plate reader (Molecular Devices, Sunnydale, Calif.).

[4] = test system: differentiated HL-60 cells; assay: Chemotaxis assay, differentiated HL-60 cells responding to C5a, C5a plus DBP or ZAS; assay type: cell-based, Human; details: for block of the cochemotactic function of full-length natural DBP (C5a+DBP) / HL-60 cell chemotactic response to complement-activated serum (ZAS): cells pretreated with 1 μM peptide 30 min; for block of the cochemotactic function of full-length natural DBP (C5a+DBP): 100 pM C5a plus 50 nM DBP, 60 min; for HL-60 cell chemotactic response to complement-activated serum (ZAS): 1% ZAS; for enhancement of C5a-mediated chemotaxis by the peptides: peptides by themselves or mixed together
Protocol: Cells (6×10^6/ml) were resuspended in chemotaxis buffer and treated either with chemotaxis buffer (control), 1 μM of peptide 1 (130-152), or 1 μM of peptide 2 (150-172) for 30 min at room temperature. The chemotactic response of differentiated HL-60 cells to 100 pM C5a alone, C5a plus 50 nM full-length natural DBP or 1% zymosan-activated serum (ZAS) was measured for 60 minutes at 37° C. Numbers represent net cell movement in 60 min, mean±SEM of 3 experiments.
Cells and cell culture: Human promyelocytic cell line HL-60 was obtained from ATCC (Rockville, Md.) and cultured in RPMI 1640 medium supplemented with 10% FBS. Differentiation of HL-60 cells was initiated with 250 μM Bt2cAMP for 48 hours.
Chemotaxis assay. Chemotaxis was performed as described previously (see Kew, R. R. et al., J. Leukoc. Biol. 58, 55-58 (1995)). In brief, 35 μl of C5a (0.01 to 1 nM) in the chemotaxis buffer (HBSS with 1% BSA, 10 mM HEPES) were placed in duplicate in the lower chamber of a 48-well chamber (Neuroprobe, Md.). The lower compartments were covered with a 5 μm pore cellulose nitrate filter and then 50 μl of the cell suspension (2.5×10^5/well) was pipetted into the upper compartments. The chemotactic chamber was incubated for 1 hour at 37° C. in a humidified incubator with 5% CO2. Following incubation, the filter was fixed, stained and mounted on a microscope slide. Cell movement was measured as the distance in microns that the leading front of the cells had migrated into the filter (see Zigmond, S. et al., J. Exp. Med. 137, 387 (1973)).

[5] = biological target: T1, DBP immobilized on a Biacore sensor chip (Homo sapiens, UniProt P02774); assay: Biacore surface plasmon resonance: U937-C5aR cell binding to immobilized DBP; details: FIG. 9A; 10^6 cells/ml pretreated with 50 nM DBP or 0.5 μM DBP peptide
T1 construct: DBP was purified from human plasma; purchased Biodesign International; host or cells: human plasma
T1 sequence (P02774 17-474): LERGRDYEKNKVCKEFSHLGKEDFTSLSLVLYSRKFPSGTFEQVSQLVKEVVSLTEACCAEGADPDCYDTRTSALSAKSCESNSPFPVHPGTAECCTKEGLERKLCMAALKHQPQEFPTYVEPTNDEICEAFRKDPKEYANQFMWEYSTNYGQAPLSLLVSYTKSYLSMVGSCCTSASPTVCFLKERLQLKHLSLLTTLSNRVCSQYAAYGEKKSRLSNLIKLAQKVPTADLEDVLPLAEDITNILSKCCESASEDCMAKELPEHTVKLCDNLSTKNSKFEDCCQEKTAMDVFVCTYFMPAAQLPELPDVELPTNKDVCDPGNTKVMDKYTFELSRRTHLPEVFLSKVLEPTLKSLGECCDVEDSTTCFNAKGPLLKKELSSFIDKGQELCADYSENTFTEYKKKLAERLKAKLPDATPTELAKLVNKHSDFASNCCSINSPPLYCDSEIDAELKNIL
Protocol: FIG. 8A and FIG. 8B show immobilization of DBP on a Biacore surface plasmon resonance sensor chip CM5. Purified DBP in HBSS (5 μM) was coupled to the sensor chip. Coupling was detected using 5 μg/ml affinity-purified anti-DBP (FIG. 8A). Different concentrations of U937-C5aR cells in HBSS were injected into the flow cell and allowed to interact with the immobilized DBP (FIG. 8B). Data is expressed as response units of the molecular interaction on the sensor chip.
(§1) FIGS. 9A to 9C show the effect of pretreating U937-C5aR cells with purified DBP or DBP peptides on the binding to DBP immobilized on a Biacore sensor chip. FIG. 9A: 10^6 cells/ml in HBSS were not treated (control), pretreated with 50 nM DBP, 0.5 μM DBP peptide 1 (p1) or DBP peptide 2 (p2). FIG. 9B: DBP peptide 1 immobilized to the Biacore sensor chip. FIG. 9C: DBP peptide 2 immobilized to the Biacore sensor chip. Data is expressed as response units of the molecular interaction on the sensor chip.
U937-C5aR cells (10^6 cells/ml in HBSS) were pretreated with a 25 μg/ml control IgG, 50 nM purified DBP or 25 μg/ml affinity-purified anti-CD44 and then allowed to interact with DBP immobilized on a Biacore sensor chip. Data is expressed as response units of the molecular interaction on the sensor chip.
According to the present invention, the interaction of an immobilized ligand, e.g., immobilized DBP, binding to cells can be measure by any established technology available in the art, e.g., by surface plasmon resonance (SPR) or Biacore technology. For example, in the present invention, the binding of U937-C5aR cells to immobilized DBP were examined by Biacore technology, the result of which is used to further determine if the DBP peptides generated in the present invention can alter the interaction U937-C5aR cells and DBP. […] To investigate further the effect of DBP peptides on cell binding, peptide 1 (FIG. 9B) and peptide 2 (FIG. 9C) were immobilized to Biacore sensor chips. […] Finally, the present invention also identifies that CD44 on the cell surface binds DBP and can, in part, mediate the C5a chemotactic cofactor effect of DBP (McVoy and Kew, J. Immunol. 175:4754, 2005). Therefore, using Biacore technology the present invention addresses the effect of blocking CD44 on U937-C5aR binding to immobilized DBP (FIG. 10). In the present invention, U937-C5aR cells were pretreated with either an irrelevant goat IgG (negative control), purified soluble DBP (positive control) or affinity-purified goat anti-CD44. […] These Biacore experiments have provided a powerful quantitative tool to investigate the cell binding region on DBP and examine the effects on DBP peptides on this interaction.

U937-C5aR cells [6] = assay: Biacore: U937-C5aR cell binding to immobilized DBP peptides; design: species or system human; details: FIG. 9B, 9C; peptide immobilized to Biacore sensor chip
Protocol: as §1
According to the present invention, the interaction of an immobilized ligand, e.g., immobilized DBP, binding to cells can be measure by any established technology available in the art, e.g., by surface plasmon resonance (SPR) or Biacore technology. For example, in the present invention, the binding of U937-C5aR cells to immobilized DBP were examined by Biacore technology, the result of which is used to further determine if the DBP peptides generated in the present invention can alter the interaction U937-C5aR cells and DBP. […] To investigate further the effect of DBP peptides on cell binding, peptide 1 (FIG. 9B) and peptide 2 (FIG. 9C) were immobilized to Biacore sensor chips. […] These Biacore experiments have provided a powerful quantitative tool to investigate the cell binding region on DBP and examine the effects on DBP peptides on this interaction.

U937-C5aR cells [7] = assay: C5a-induced intracellular calcium mobilization in U937-C5aR cells; assay type: cell-based, human; details: FIG. 11B, 12; 0.5 μM DBP peptide, 50 nM DBP, 0.1 nM C5a
Protocol: FIG. 11A and FIG. 11B show the effect of DBP on C5a-induced intracellular calcium mobilization in U937-C5aR cells. U937-C5aR cells (10^7 cells/ml) were resuspended in HBSS-1% BSA containing 2 μM Fluo-3 AM and incubated at 37° C. for 40 minutes. Cells incubated without the dye were used as a control to measure autofluorescence (Fmin). Following the dye uptake, cells were washed twice then suspended at 5×10^6 cells/ml in HBSS containing 1% BSA. For the pretreatment experiments, cells were incubated for 30 min at 22° C. with 50 nM DBP or 0.5 μM DBP peptide 1 (p1). For each measurement, 400 μl of cell suspension was added to a cuvette and stimulated with the indicated concentration of C5a (FIG. 11A) or 0.1 nM C5a (FIG. 11B). Fluorescence was then measured immediately using a Perkin-Elmer LS-5 fluorometer at 505 nm excitation, 526 nm emission for Fluo-3 AM. Fmax was measured by treating labeled cells with 60 μM digitonin. Intracellular free calcium concentrations were calculated using the following formula: (Ca^2+)=Kd (F−Fmin)/(Fmax−F), where Kd=325 nM for Fluo-3 according to manufacturer (Molecular Probes). Data are presented as mean±SEM (n=4-6) of the increase in intracellular calcium concentration.
U937-C5aR cells (10^7 cells/ml) were resuspended in HBSS-1% BSA containing 2 μM Fluo-3 AM and incubated at 37° C. for 40 minutes. Cells incubated without the dye were used as a control to measure autofluorescence (Fmin). Following the dye uptake, cells were washed twice then suspended at 5×10^6 cells/ml in HBSS containing 1% BSA. Cells were incubated for 30 min at 22° C. with either 50 nM DBP or 0.5 μM DBP peptide. For each measurement, 400 μl of cell suspension was added to a cuvette and stimulated with 0.1 nM purified C5a. Fluorescence was then measured immediately using a Perkin-Elmer LS-5 fluorometer at 505 nm excitation, 526 nm emission for Fluo-3 AM. Fmax was measured by treating labeled cells with 60 μM digitonin. Intracellular free calcium concentrations were calculated using the following formula: (Ca2+)=Kd (F−Fmin)/(Fmax−F), where Kd=325 nM for Fluo-3 according to manufacturer (Molecular Probes)

Molecule	neutrophil chemotaxis to optimal concentrations of C5a, formyl peptide, LTB4 or CXCL8 (IL-8) (neutrophils [1]; 10 nM bound to DBP)	effect on co-chemotactic activity of DBP (neutrophil chemotaxis toward C5a) (neutrophils [1]; ligand bound to DBP, 1,25(OH)2D3 100 nM)	effect on binding of 125I-DBP to neutrophils (neutrophils [2])	neutrophil AP activity [3]	block of the cochemotactic function of full-length natural DBP (C5a+DBP) ([4]; listed as DBP peptide 1)	block of the cochemotactic function of full-length natural DBP (C5a+DBP) ([4]; listed as SEQ ID NO: 3)	HL-60 cell chemotactic response to complement-activated serum (ZAS) ([4]; listed as DBP peptide 1)	HL-60 cell chemotactic response to complement-activated serum (ZAS) ([4]; listed as SEQ ID NO: 3)	enhancement of C5a-mediated chemotaxis by the peptides [4]	inhibition of U937-C5aR cell binding to the DBP chip [5]	U937-C5aR cell binding to immobilized peptide (U937-C5aR cells [6])	block of the DBP-enhanced C5a calcium signal (U937-C5aR cells [7])	block of the cochemotactic function of full-length natural DBP (C5a+DBP) [4]
C=C1/C(=C\C=C2/CCC[C@]3(C)[C@@H]([C@H](C)CCCC(C)(C)O)CC[C@@H]23)C[C@@H](O)C[C@@H]1O [1,25(OH)2D3, 1,25(OH)2 Vitamin D3]	does not alter neutrophil chemotaxis	completely eliminated the co-chemotactic effect	did not alter DBP binding to neutrophils	not significantly altered									
EAFRKDPKEYANQFMWEYSTNYG [peptide 1, DBP residues 130-152]					completely blocked the chemotactic enhancing effect of DBP	completely block	completely blocked	eliminate	could not enhance C5a-mediated chemotaxis	no effect on cell binding	do not bind	completely blocks	
NYGQAPLSLLVSYTKSYLSMVGS [peptide 2, DBP residues 150-172]									could not enhance C5a-mediated chemotaxis	about 50%	do bind		not
